Patent publication US5925369A, “Bis alkanoyl esters of carnitine having bactericidal, fungicidal and antiprotozoal activity” (priority 1996, dated 1999)
Like-named read-outs stand apart in the source and are kept apart here.

Columns and labels:
Format in all cases: cell-based
[1] = test system: C. tropicalis; experiment: MIC on yeast-like strains; details: Candida tropicalis; C. tropicalis ISS 1, lab collection; read-out: Minimal Inhibitory Concentration
Procedure: (§1) Overnight yeast cultures in Sabouraud broth are appropriately washed and diluted in Yeast Nitrogen Base supplemented with asparagine and glucose (Y.N.B.s.) to yield approximately 5.0×10^4 CFU/ml in microtiter wells. Substance dilutions (0.3 log) in Y.N.B.s. are added to these suspensions to a final concentration range from 0.19 to 100 mcg/ml. Microtiter plates are then incubated at 35° C. for 24-48 hours (See PFALLER M., RINALDI M. G., […] J. M., BARTLETT M. S., BODY B. A., ESPINEL-INGROFF A., FROMTLING R. A., HALL G. S., HUGHES G. E., ODDS F. C., SUGAR A. M., Collaborative investigator of variables in susceptibility testing of yeasts, Ant. Agent and Chemoth., 34, 9:1648-1656, 1990. COOK R., McINTYRE K. A., […] J. M., Effects of incubation temperature, inoculum size, and medium on agreement of macro and microdilution broth susceptibility test, results for yeasts, Ant. Agent and Chemoth., 34, 8:1542-1545, 1990. […] E., PAETZNICK V., BODEY G. P., Fluconazole susceptibility testing of "Candida albicans" microtiter method that is indipendent of inoculum size, temperature, and time of reaching, Ant. Agent and Chemoth., 35, 8:1641-1646, 1991).

[2] = test system: C. krusei; experiment: MIC on yeast-like strains; details: Pichia kudriavzevii; C. krusei ISS 1, lab collection; read-out: Minimal Inhibitory Concentration
Procedure: as §1

[3] = test system: Candida albicans; experiment: MIC on yeast-like strains; details: read-out: Minimal Inhibitory Concentration
Procedure: as §1

[4] = test system: S. cerevisiae; experiment: MIC on yeast-like strains; details: Saccharomyces cerevisiae, ATCC7752; S. cerevisiae ATCC 7752, lab collection; read-out: Minimal Inhibitory Concentration
Procedure: as §1

[5] = test system: dermatophytes; experiment: MIC on dermatophytes (all strains); details: for MIC: 22 strains
Procedure: (§2) Mycelium fragments, micro and macroaleuriospores are harvested from 7-day fungal cultures grown at 30 ° C. in Potato Dextrose agar by washing them with Sabouraud broth and 0.5% Tween 80. After a coarse filtration and washing, the fungal suspension is resuspended in Yeast Nitrogen Base supplemented with asparagine and glucose (YNBs) to yield a final concentration of 1.0×10^5 infective units/ml in a microtiter plate. The substances (0.3 log dilutions in Y.N.B.s.) are added to the fungal suspensions in order to generate a range of final concentrations from 0.19 to 100 mcg/ml. The microtiter plates are then incubated at 30° C. for 96-120 hours.

[6] = test system: Aspergillus niger; experiment: MIC on filamentous fungi; details: ATCC16404; Aspergillus niger ATCC 16404, lab collection; read-out: Minimal Inhibitory Concentration
Procedure: The conidia are collected from 72-hour cultures in Sabouraud agar by washing them with Sabouraud broth and 0.5% Tween 80. After a coarse filtration and washing, the resulting suspensions are adjusted to a final concentration of approx. 5.0×10^4 CFU/ml in a microtiter plate. The substances (0.3 log dilutions in Y.N.B.s.) are added to the fungal suspensions in order to generate a range of final concentrations from 0.19 to 100 mcg/ml. The microtiter plates are then incubated at 35° C. for 48-72 hours.

[7] = test system: Tr. quinckeanum; experiment: MIC on dermatophytes; details: Tr. quinckeanum NCPF 309, lab collection; read-out: Minimal Inhibitory Concentration
Procedure: as §2

[8] = test system: Microsporum canis; experiment: MIC on dermatophytes; details: read-out: Minimal Inhibitory Concentration
Procedure: as §2

[9] = test system: Epidermoph. floccosum; experiment: MIC on dermatophytes; details: read-out: Minimal Inhibitory Concentration
Procedure: as §2

[10] = test system: Tr. mentagrophytes; experiment: MIC on dermatophytes; details: Trichophyton mentagrophytes, read-out: Minimal Inhibitory Concentration
Procedure: as §2

[11] = test system: Tr. rubrum; experiment: MIC on dermatophytes; details: Trichophyton rubrum, read-out: Minimal Inhibitory Concentration
Procedure: as §2

[12] = test system: Trichomonas vaginalis; experiment: MIC on protozoa (Trichomonas vaginalis); details: for MIC: Trichomonas vaginalis
Procedure: Protozoal suspensions are prepared from 24-hour cultures grown at 37° C. and 5% CO2 in DIAMOND T.Y.M. broth supplemented with 10% heat-inactivated FCS.
The suspensions are adjusted, in the same medium, to a final concentration of 2.5×10^5 cells/ml in each well of a 96-well microtiter plate. Substance dilutions (0.3 log) are added to the suspensions in order to have a range of final concentrations from 0.19 to 100 mcg/ml. Microtiters are then incubated at 37° C. and 5% CO2 for 24 hours. MIC is referred to as the minimal concentration inhibiting either protozoa or flagella or undulating membrane motility (Cf. JULIANO C., MARTINOTTI M. G., […] P., In vitro effect of microtubule inhibitors on T. vaginalis, Microbiologia, 8:31-42, 1985. LOVGREN T. and SALMELA I., Invitro sensitivity of T. vaginalis and C. albicans to chemotherapeutic agents, Acta Path. Microbiol. Scand.. 86:155-158, 1978).

[13] = C. albicans 562, lab collection
[14] = C. albicans ISS 1, lab collection
[15] = Candida albicans 1786/94, clinical isolate
[16] = Candida albicans IDI D 0101, clinical isolate (eczema, internatal; prior Versus)
[17] = Candida albicans IDI D 0297, clinical isolate (vulvar vaginitis; prior Pevaryl)
[18] = Candida albicans IDI D 1046, clinical isolate (glossitis; prior Daktarin)
[19] = Candida albicans IDI D 1056, clinical isolate
[20] = Candida albicans IDI D 1088, clinical isolate
[21] = Candida albicans IDI D 3575, clinical isolate
[22] = Candida albicans SG 2 III, clinical isolate (vaginitis)
[23] = Candida albicans SG 7 I, clinical isolate (Tinea unguis, hands)
[24] = Candida albicans SG 14 III, clinical isolate (vaginitis)
[25] = Microsporum canis IDI D 0238, clinical isolate (tricophytosis, right arm; prior Nerisona)
[26] = Microsporum canis IDI D 1011, clinical isolate (eczema, neck; prior Gentalyn and cortisone)
[27] = Microsporum canis IDI D 1123, clinical isolate (epidermophytosis, back; prior Gentalyn)
[28] = Microsporum canis IMM 3868, lab collection
[29] = Epidermoph. floccosum IDI D 0011, clinical isolate (epidermophytosis, foot interdigital)
[30] = Epidermoph. floccosum SG 3 III, clinical isolate
[31] = Epidermoph. floccosum SG 6 II, clinical isolate (Tinea pedis)
[32] = Tr. mentagrophytes IDI D 1027, clinical isolate (impetiginous eczema, chin)
[33] = Tr. mentagrophytes IDI D 1049, clinical isolate
[34] = Tr. mentagrophytes IDI D 1101, clinical isolate (epidermatomycosis, face)
[35] = Tr. mentagrophytes SG 3 I, clinical isolate (Tinea pedis)
[36] = Tr. mentagrophytes SG 4 II, clinical isolate (Tinea cruris)
[37] = Tr. mentagrophytes SG 5 III, clinical isolate (Tinea pedis)
[38] = Tr. mentagrophytes SG 8 II, clinical isolate (Tinea cruris)
[39] = Tr. rubrum IDI D 0222, clinical isolate (onychomycosis, left and right big toes)
[40] = Tr. rubrum IDI D 0252, clinical isolate (impetigo, left arm; prior Rifocin)
[41] = Tr. rubrum IDI D 0261, clinical isolate (dyshidrotic eczema, right foot)
[42] = Tr. rubrum IDI D 1017, clinical isolate (onychomycosis, right big toe; prior Azolmen)
[43] = Tr. rubrum IDI D 1150, clinical isolate (epidermophytosis; prior Gentalyn)
[44] = Tr. rubrum IDI D 1155, clinical isolate
[45] = Tr. rubrum SG 13 III, clinical isolate (Tinea pedis)
[46] = T. vaginalis SS-2, read-out: Minimal Inhibitory Concentration
[47] = T. vaginalis SS-9, read-out: Minimal Inhibitory Concentration
[48] = T. vaginalis SS-20, Metronidazole resistant, read-out: Minimal Inhibitory Concentration
[49] = T. vaginalis SS-22, Metronidazole resistant, read-out: Minimal Inhibitory Concentration
[50] = T. vaginalis, 4 strains, read-out: Mean MIC

CCCCCCCCCCCOC(=O)C[C@H](C[N+](C)(C)C)OC(=O)CC(C)C [ST 1103, isovaleryl L-carnitine undecyl ester methanesulfonate, reference compound]
13.5 µg/mL: MIC [5]
12.5 µg/mL: MIC [6] | MIC [8, 26] | MIC [8, 27] | MIC [8, 28] | MIC [9, 29] | MIC [9, 31] | MIC [10, 32] | MIC [10, 33] | MIC [10, 34] | MIC [10, 35] | MIC [10, 36] | MIC [10, 37] | MIC [10, 38] | MIC [11, 39] | MIC [11, 41] | MIC [11, 42] | MIC [11, 43] | MIC [11, 45]
6.25 µg/mL: MIC [3, 15] | MIC [3, 16] | MIC [3, 21] | MIC [3, 22] | MIC [3, 24] | MIC [7]
1.56 µg/mL: MIC [3, 14]
25 µg/mL: MIC [8, 25] | MIC [9, 30] | MIC [11, 40] | MIC [12, 46] | MIC [12, 47] | MIC [12, 48] | MIC [12, 49] | MIC [12, 50]
3.12 µg/mL: MIC [1] | MIC [2] | MIC [3, 13] | MIC [3, 17] | MIC [3, 18] | MIC [3, 19] | MIC [3, 20] | MIC [3, 23] | MIC [4] | MIC [11, 44]

CCCCCCCCCCC(=O)O[C@H](CC(=O)OCc1ccc(COC(=O)C[C@H](C[N+](C)(C)C)OC(=O)CCCCCCCCCC)cc1)C[N+](C)(C)C [ST 1226, bis(undecanoyl L-carnitine chloride)p-xylilene diester]
3.12 µg/mL: MIC [2] | MIC [3, 13] | MIC [3, 14] | MIC [3, 15] | MIC [3, 17] | MIC [3, 18] | MIC [3, 20] | MIC [3, 21] | MIC [3, 23] | MIC [8, 26] | MIC [10, 32] | MIC [10, 37]
6.25 µg/mL: MIC [6] | MIC [9, 30] | MIC [9, 31]
2 fold: greater (fold) activity than ST 1103 ([12]; T. vaginalis, ST 1226 vs ST 1103)
higher activity than ST 1103: activity compared with ST 1103 [5]
1.56 µg/mL: MIC [1] | MIC [3, 16] | MIC [3, 19] | MIC [3, 22] | MIC [3, 24] | MIC [4] | MIC [7] | MIC [8, 27] | MIC [8, 28] | MIC [10, 33] | MIC [10, 34] | MIC [10, 35] | MIC [10, 36] | MIC [10, 38] | MIC [11, 39] | MIC [11, 40] | MIC [11, 41] | MIC [11, 42] | MIC [11, 43] | MIC [11, 44] | MIC [11, 45]
12.5 µg/mL: MIC [8, 25] | MIC [9, 29] | MIC [12, 46] | MIC [12, 47] | MIC [12, 48] | MIC [12, 49] | MIC [12, 50]
3.19 µg/mL: MIC [5]
